Source: US20170258761A1, “Pharmaceutical Compositions Comprising Canagliflozin” (Sandoz AG, priority 2014, published 2017)
In brackets after ≈: the same amount, converted by molar mass. Where two headings read alike, the source gives them in different places. One block for each molecule: values may come before it.

Tests used:
Assay type in all cases: physicochemical
[1] = Water activity of excipients, normal and dried; conditions: for Water activity dry (#): excipient dried for 4 hours at ambient temperature in a vacuum chamber; for Water activity normal (*): excipient exposed to 40% RH for 24 hours at ambient temperature
Protocol: The influence of water activity of each excipient on chemical and physical stability of Canagliflozin was further tested.
In Table 12, the normal (*) excipients mean that they were exposed to 40% RH for 24 hours at ambient temperature; and the dry (#) excipients mean that they were dried for 4 hours at ambient temperature in a vacuum chamber.

[2] = Equilibrium solubility of Canagliflozin in McIlvaine buffer, FaSSIF and FeSSIF with excipients; conditions: 37 °C, thermodynamic from solid
Protocol: Inhibition of precipitation and supersaturation effects were also evaluated in more biorelevant dissolution media, FaSSIF and FeSSIF, prepared according to Dressman et al. (Dressman et al. Dissolution testing as a prognostic tool for oral drug absorption: immediate release dosage forms. Pharm Res, 1998)). Excipients were used in 1 mg/ml concentration. […] All tests were performed in duplicate.

[3] = Influence of water activity on physical stability of Canagliflozin; conditions: samples exposed to 30, 40, 50, 60 RH %, then 50° C. for 14 days
Protocol: The influence of water activity on physical stability of Canagliflozin were further tested. Prior storage at stress stability conditions samples were exposed to different relative humidity (30, 40, 50 and 60 RH %). After storage at elevated temperature (50° C.) for 14 days samples were tested for water activity and polymorphic form. It was established that Canagliflozin was physically stable when water activity was≦0.3. Results confirmed that appropriate dryness of the samples is critical for product stability.
The influence of water activity of the formulation on physical stability of Canagliflozin was further tested. Prior storage at stress stability conditions samples were exposed to different relative humidity (30, 40, 50 and 60 RH %). After storage at elevated temperature (50° C.) for 14 days samples were tested for water activity and polymorphic form. It was established that Canagliflozin was physically stable when water activity was≦0.4. Results confirmed that appropriate dryness of the samples is critical for product stability (see Table 14, showing Examples 2 and 7 as exemplary samples).

[4] = Equilibrium solubility of Canagliflozin in McIlvaine buffer, FaSSIF and FeSSIF with excipients; conditions: 37 °C, thermodynamic from solid; remark: listed apart in the source
[5] = Precipitation inhibition screening of excipients with nephelometer; conditions: McIlvaine buffer pH 6.8
Protocol: In vitro high-throughput precipitation inhibition screening with nephelometer was performed for different excipients in McIlvaine buffer pH 6.8 at 1%, 0.1%, and 0.01% (w/v) according to the procedure published in Petrusevska et al (Petrusevska et al. Evaluation of light scattering and turbidity microtiter plate-based methods for detection of the excipient-mediated drug precipitation inhibition. Eur J Pharm Biopharm, 2013). The ratio between turbidity signal for each tested concentration of selected excipient with Canagliflozin and plain buffer containing only Canagliflozin were determined.

[6] = Equilibrium aqueous solubility at 25 °C (HPLC); conditions: water, 25 ± 1° C.
Protocol: As described in Example 5 of the co-pending application PCT/EP2014/059281, the aqueous solubilities of forms HxA and HxB of the present invention and the hemihydrate of Canagliflozin described in WO 2008/069327 A1 were determined by the equilibrium solubility method. Saturated solutions of Canagliflozin, obtained by stirring 50 mg of each crystalline form in 50 mL water were prepared and stirred at 25±1° C. After 60 minutes of stirring, three samples were withdrawn, filtered through 0.45 μm syringe filters and the filtrates were directly analyzed by HPLC.
Using six concentration points of known Canagliflozin concentrations a calibration line was fitted by linear regression.

[7] = Chemical stability in binary mixtures with excipients; conditions: 1 g + 1 g excipient of Table 9, tablets, 50° C., sealed glass vial, 14 days
Protocol: Canagliflozin degradation products were followed by high performance liquid chromatography using the following chromatographic method. Samples were dissolved in a mixture of 60 w/w % acetonitrile in buffer pH=5 (0.77 g of CH3OONH4 in 1 L of water, pH adjusted to pH=5 with acetic acid) to achieve a concentration of about 0.2 mg/ml of Canagliflozin. The sample solution was injected into an UHPLC system with a BEH C18 column (1.7 micrometer particles) using binary gradient elution. Mobile phase A consisted of mixture of 70 w/w % buffer with pH=5 in acetonitrile and mobile phase B consisted of acetonitrile. Gradient elution was performed according to the following program: mobile phase A (%)/time (min): 100%/0 min; 100%/5 min; 14%/[…]; 40%/35 min; 15%/40 min; 15%/45 min. The detector was set to a wavelength of 290 nm and impurities quantitated as area % with no response factors applied. Stability of samples was monitored by exposing them to elevated temperature (50° C.) in a sealed glass vial for 14 days. After storage, samples were analysed and the amounts of degradation products measured by UHPLC. The extent of degradation was determined by subtracting the total amount of degradation products of a […] from the total amount of degradation of a […].

[8] = Solubility and dynamic solubility of amorphous Canagliflozin versus hemihydrate; conditions: 37° C., shaking, HPLC
Protocol: Additionally dynamic solubility in water was determined at 0.5 h, 1 h and 24 h time points (37° C., shaking, HPLC determination).

SMILES: OC[C@H]1O[C@@H](O[C@H]2[C@H](O)[C@@H](O)C(O)O[C@@H]2CO)[C@H](O)[C@@H](O)[C@H]1O (stereo partly drawn) [Lactose anhydrous]
- Water activity dry (#) [1]: 14.8
- Water activity normal (*) [1]: 28.6

SMILES: Cc1ccc([C@@H]2O[C@H](CO)[C@@H](O)[C@H](O)[C@H]2O)cc1Cc1ccc(-c2ccc(F)cc2)s1 [Canagliflozin, 1-(β-D-glucopyranosyl)-4-methyl-3-[5-(4-fluorophenyl)-2-thienylmethyl]benzene]
- solubility thermodynamic at 24 h ([2]; FaSSIF, pH 6.5, aqueous with cosolvent or surfactant or cyclodextrin, with Texapon 1 mg/ml, 24 h, read-out: Equilibrium solubility in FaSSIF pH 6.5): 7.98 mg/mL (≈ 18 mM)
- solubility thermodynamic at 24 h ([2]; FaSSIF, pH 6.5, aqueous with cosolvent or surfactant or cyclodextrin, with Texapon + HPMC 603, each 1 mg/ml, 24 h, read-out: Equilibrium solubility in FaSSIF pH 6.5): 8.48 ± 0.18 mg/mL
- solubility thermodynamic at 24 h ([2]; FeSSIF, pH 5.5, aqueous with cosolvent or surfactant or cyclodextrin, with Texapon 1 mg/ml, 24 h, read-out: Equilibrium solubility in FeSSIF pH 5.5): 25 ± 1.34 mg/mL (≈ 56.2 mM)
- solubility thermodynamic at 24 h ([2]; FeSSIF, pH 5.5, aqueous with cosolvent or surfactant or cyclodextrin, with Texapon + HPMC 603, each 1 mg/ml, 24 h, read-out: Equilibrium solubility in FeSSIF pH 5.5): 27.8 ± 2.35 mg/mL
- solubility thermodynamic at 24 h ([2]; FeSSIF, pH 5.5, fessif, no excipient, 24 h incubation, read-out: Equilibrium solubility in FeSSIF pH 5.5): 21 ± 1.03 mg/mL (≈ 47.3 mM)
- water activity at which Canagliflozin was physically stable ([3]; Example A (non-stoichiometric hydrate)): ≤ 0.3
- water activity at which Canagliflozin was physically stable ([3]; Example B (amorphous formulation)): ≤ 0.4
- solubility thermodynamic at 24 h ([4]; FaSSIF, pH 6.5, fassif, no excipient, 24 h incubation, read-out: Equilibrium solubility in FaSSIF pH 6.5): 5.31 ± 0.97 mg/mL (≈ 11.9 mM)
- solubility thermodynamic at 24 h ([4]; McIlvaine buffer, pH 6.5, aqueous buffer, buffer, no excipient, 24 h incubation, read-out: Equilibrium solubility in McIlvaine buffer pH 6.5): 0.021 ± 0.001 mg/mL (≈ 0.0472 mM)
- solubility thermodynamic at 24 h ([4]; McIlvaine buffer, pH 6.5, aqueous with cosolvent or surfactant or cyclodextrin, with HPMC 606 1 mg/ml, 24 h, read-out: Equilibrium solubility in McIlvaine buffer pH 6.5): 0.062 ± 0.007 mg/mL (≈ 0.139 mM)
- solubility thermodynamic at 24 h ([4]; McIlvaine buffer, pH 6.5, aqueous with cosolvent or surfactant or cyclodextrin, with Texapon 1 mg/ml, 24 h, read-out: Equilibrium solubility in McIlvaine buffer pH 6.5): 2.85 ± 0.332 mg/mL (≈ 6.4 mM)
- solubility thermodynamic at 24 h ([4]; McIlvaine buffer, pH 6.5, aqueous with cosolvent or surfactant or cyclodextrin, with Texapon + HPMC 603, each 1 mg/ml, 24 h, read-out: Equilibrium solubility in McIlvaine buffer pH 6.5): 2.58 ± 0.036 mg/mL

SMILES: CCCCCCCCCCCCOS(=O)(=O)[O-].[Na+] [Texapon, Sodium Lauryl Sulfate]
- time Canagliflozin supersaturation was sustained ([5]; excipient at highest concentration tested (1% w/v)): 10 min
- rate of canagliflozin dissolution in the presence of excipient ([5]; highest concentration tested): fastest

SMILES: Cc1ccc([C@@H]2O[C@H](CO)[C@@H](O)[C@H](O)[C@H]2O)cc1Cc1ccc(-c2ccc(F)cc2)s1 [hemihydrate of WO 2008/069327 A1 (=Hy0.5)] [1-(β-D-glucopyranosyl)-4-methyl-3-[5-(4-fluorophenyl)-2-thienylmethyl]benzene]
- Rel. Solubilities [6]: 90%
- degradation products (impurities) in binary mixtures with excipients ([7]; listed as Canagliflozin hemihydrate): impurities were increased when containing excipients such as Syloid, PEG 6000 and Polyoxyl 40 hydrogenated castor oil

SMILES: Cc1ccc([C@@H]2O[C@H](CO)[C@@H](O)[C@H](O)[C@H]2O)cc1Cc1ccc(-c2ccc(F)cc2)s1 [1-(β-D-glucopyranosyl)-4-methyl-3-[5-(4-fluorophenyl)-2-thienylmethyl]benzene]
- solubility at 60 min ([6]; 25 °C, thermodynamic from solid, 60 minutes of stirring, read-out: Abs. Solubilities): 0.018 mg/mL (≈ 0.0405 mM)

SMILES: CCCCCCCCCCCCCCCCCC(=O)[O-].CCCCCCCCCCCCCCCCCC(=O)[O-].[Mg+2] [Mg stearate]
- Water activity dry (#) [1]: 15.9
- Water activity normal (*) [1]: 26.6

Now from value to molecule, other results behind:

- solubility compared to crystalline Canagliflozin hemihydrate ([8]; pH 1.2, 4.5 and 6.8): increased solubility
- degradation products (impurities) in binary mixtures with excipients [7]: no increase in impurities was observed
SMILES: Cc1ccc([C@@H]2O[C@H](CO)[C@@H](O)[C@H](O)[C@H]2O)cc1Cc1ccc(-c2ccc(F)cc2)s1 [amorphous Canagliflozin, 1-(β-D-glucopyranosyl)-4-methyl-3-[5-(4-fluorophenyl)-2-thienylmethyl]benzene]
- dynamic solubility in water compared to crystalline Canagliflozin hemihydrate ([8]; 0.5 h, 1 h and 24 h): increased solubility as well as dynamic solubility

- Rel. Solubilities [6]: 100%
- increased aqueous solubility compared to the crystalline hemihydrate of WO 2008/069327 A1 [6]: 10%
- Abs. Solubilities ([6]; 60 minutes of stirring): 20 µg/mL
SMILES: Cc1ccc([C@@H]2O[C@H](CO)[C@@H](O)[C@H](O)[C@H]2O)cc1Cc1ccc(-c2ccc(F)cc2)s1 [form HxB, 1-(β-D-glucopyranosyl)-4-methyl-3-[5-(4-fluorophenyl)-2-thienylmethyl]benzene form HxB]

- Rel. Solubilities [6]: 100%
- increased aqueous solubility compared to the crystalline hemihydrate of WO 2008/069327 A1 [6]: 10%
- Abs. Solubilities ([6]; 60 minutes of stirring): 20 µg/mL
SMILES: Cc1ccc([C@@H]2O[C@H](CO)[C@@H](O)[C@H](O)[C@H]2O)cc1Cc1ccc(-c2ccc(F)cc2)s1 [form HxA, 1-(β-D-glucopyranosyl)-4-methyl-3-[5-(4-fluorophenyl)-2-thienylmethyl]benzene form HxA]
